{"source": "patent US9072746B2", "about": "“Method for enhancing learning and memory impaired by neurodegenerative disorders and compounds and compositions for effecting the same” (The Board of Trustees of the Leland Stanford Junior …, priority 2010, dated 2015)", "format_in_all_cases": "in vivo", "key": {"[1]": {"system": "male Ts65Dn mice", "assay": "Exploratory activity in novel environment (Activity Chamber)", "details": "for effect on locomotor activity (total ambulatory distance moved): xamoterol 3 mg/kg s.c.", "method": "(§1) The Activity Chamber (Med associates Inc., St. Albans, Vt.) was used for the evaluation of general activity, gross locomotor activity, and exploratory behavior. Assessment took place in a square arena, 43.2×43.2 cm, with 3 planes of infrared detectors within a specially designed sound attenuating chamber, 66×55.9×55.9 cm, under dim light. The animal was placed in the center of the testing arena and allowed to move freely for 30 minutes while being tracked by an automated tracking system. Distance moved, velocity, resting time, and vertical count (rearing) were recorded. […] In this part of the study, activity chamber and three cognitive tests, including T-maze spontaneous alternation, contextual fear conditioning (CFC), and novel object recognition were performed. In T-maze spontaneous alternation and contextual fear conditioning, both Ts65Dn and 2N male mice were divided into three treatment groups including normal saline (Vehicle), xamoterol, and betaxolol plus xamoterol groups. In the novel object recognition test, both Ts65Dn and 2N male mice were divided into two treatment groups, normal saline and xamoterol. The T-maze was performed exactly as previously described. […] On the first day (training day), animals were placed in the fear conditioning chamber, and after a 3-minute pre-shock period, they were exposed to 5 shocks (2 s, 0.5 mA,) with inter-trial intervals of 80 seconds and no tone. On the second day, the animals first received xamoterol, xamoterol plus betaxolol, or saline injection, and one hour later, they were placed in the same chamber for 5 minutes. Similar to the previous description of fear conditioning, freezing was defined as the complete lack of motion for a minimum of o.75 second. The Novel Object Recognition task is conducted in an open field arena (40 cm×40 cm). Mice were habituated in the testing room for 1 hour followed by 5 minutes habituation inside the arena without any objects. On 4th day animals were introduced 3 times to arena with 3 identical subjects for 10 minutes with 3 minutes inter trial intervals. On 5th day (24 hours after trainings) one of the objects replaced by a novel one and the time sniffing of each object were used for analysis. For testing the role of β1 adrenergic system, xamoterol and betaxolol (Tocris Bioscience, Ellisville, Mo.) were injected subcutaneously using 10 ml/kg normal saline as vehicle. Xamoterol, (3 mg/kg) was given one hour before testing and betaxolol (1 mg/kg) was given 30 minutes before testing."}, "[2]": {"system": "male 2N mice", "assay": "Exploratory activity in novel environment (Activity Chamber)", "method": "as §1"}, "[3]": {"system": "male Ts65Dn mice", "assay": "Contextual fear conditioning", "details": "for effect on memory retrieval deficit in contextual fear conditioning: xamoterol 3 mg/kg s.c. one hour before testing", "method": "(§2) Contextual and Cued fear conditioning was conducted for evaluation of fear-dependent learning and retrieval in the study. The test was performed using chambers from Coulbourn Instruments (Whitehall, Pa.). On the first day, the animals were placed in a chamber (Context A) for 3 min for baseline recording, followed by 5 tone-shock pairings. The shock (0.5 mA, 2 sec) was delivered following the tone (70 dB, 2 kHz, 20 sec) in each conditional/unconditional stimulus pairing. On the second day a novel chamber (Context B; new room, new olfactory environment, texture of floor, blue plastic inserts for walls, extra source of blue light, and visual cues) was used for cued testing. Three tones without shocks were presented to animals during a 3 min testing period following a 3 min pre-tone period. On the last day of the experiment, the mice were placed in Context A for 5 min without any conditional and unconditional stimulus {modified from the method described by (Saxe et al., 2006)}. Freezing was defined as the complete lack of motion for a minimum of 0.75 second as measured by FreezeFrame software (Actimetrics, Evanston, Ill.). The percent of freezing in each period was reported. For the startle response control test, an acoustic startle reflex apparatus (Med Associates Inc., St. Albans, Vt.) was used. The subjects were acclimated to the animal holder in the startle box for a total of 15 min over 3 consecutive-days prior to the experiment. The animals were exposed to 25 different trials with 10-20 second randomly variable inter-trial intervals. Five different intensities of startle pulses, 0, 90, 100, 110, and 120 dB, were randomly used, and each animal was randomly exposed 5 times to each intensity of the startle pulse. The duration of each startle pulse was 40 ms and the peak amplitude of the startle response in each trial was recorded for analysis. The holding cage on the apparatus was cleaned with 10% alcohol between each animal. […] In this part of the study, activity chamber and three cognitive tests, including T-maze spontaneous alternation, contextual fear conditioning (CFC), and novel object recognition were performed. In T-maze spontaneous alternation and contextual fear conditioning, both Ts65Dn and 2N male mice were divided into three treatment groups including normal saline (Vehicle), xamoterol, and betaxolol plus xamoterol groups. In the novel object recognition test, both Ts65Dn and 2N male mice were divided into two treatment groups, normal saline and xamoterol. The T-maze was performed exactly as previously described. […] On the first day (training day), animals were placed in the fear conditioning chamber, and after a 3-minute pre-shock period, they were exposed to 5 shocks (2 s, 0.5 mA,) with inter-trial intervals of 80 seconds and no tone. On the second day, the animals first received xamoterol, xamoterol plus betaxolol, or saline injection, and one hour later, they were placed in the same chamber for 5 minutes. Similar to the previous description of fear conditioning, freezing was defined as the complete lack of motion for a minimum of o.75 second. The Novel Object Recognition task is conducted in an open field arena (40 cm×40 cm). Mice were habituated in the testing room for 1 hour followed by 5 minutes habituation inside the arena without any objects. On 4th day animals were introduced 3 times to arena with 3 identical subjects for 10 minutes with 3 minutes inter trial intervals. On 5th day (24 hours after trainings) one of the objects replaced by a novel one and the time sniffing of each object were used for analysis. For testing the role of β1 adrenergic system, xamoterol and betaxolol (Tocris Bioscience, Ellisville, Mo.) were injected subcutaneously using 10 ml/kg normal saline as vehicle. Xamoterol, (3 mg/kg) was given one hour before testing and betaxolol (1 mg/kg) was given 30 minutes before testing."}, "[4]": {"system": "male 2N mice", "assay": "Contextual fear conditioning", "details": "xamoterol 3 mg/kg s.c. 1 h, betaxolol 1 mg/kg s.c. 30 min before testing", "method": "as §2"}, "[5]": {"details": "xamoterol 3 mg/kg s.c. one hour before testing"}}, "note": "Entries after “also recorded” stand apart in the source; their conditions may differ.", "data": [{"smiles": "O=C(NCCNCC(O)COc1ccc(O)cc1)N1CCOCC1", "note": "(centres unmarked) [xamoterol]", "values": [{"measurement": "effect on locomotor activity (total ambulatory distance moved)", "setting": "[1]", "value": "no significant effect"}, {"measurement": "Total Ambulatory Distance Moved in Activity Chamber (cm), Mean ± SEM", "setting": "[1]; [5]", "value": "3878 ± 765", "unit": "cm"}, {"measurement": "effect on locomotor activity (total ambulatory distance moved)", "setting": "[1]; listed as Xamoterol", "value": "did not show a significant effect"}, {"measurement": "effect on locomotor activity (total ambulatory distance moved)", "setting": "[1]; listed as Xamoterole", "value": "Xamoterole has no effect on activity"}, {"measurement": "effect on locomotor activity (total ambulatory distance moved)", "setting": "[2]; xamoterol 3 mg/kg s.c.", "value": "no significant effect"}, {"measurement": "Total Ambulatory Distance Moved in Activity Chamber (cm), Mean ± SEM", "setting": "[2]; [5]", "value": "2554 ± 192", "unit": "cm"}, {"measurement": "% Freshing in Tone-cued Fear Conditioning, Mean ± SEM", "setting": "[3]; xamoterol 3 mg/kg s.c. 1 h, betaxolol 1 mg/kg s.c. 30 min before testing", "value": "45.36 ± 12.40", "unit": "%"}, {"measurement": "effect on memory retrieval deficit in contextual fear conditioning", "setting": "[3]", "value": "completely rescue"}, {"measurement": "effect on memory retrieval deficit in contextual fear conditioning", "setting": "[3]; listed as Xamoterol", "value": "rescued; also recorded: improved"}, {"measurement": "effect on memory retrieval deficit in contextual fear conditioning", "setting": "[3]; listed as Xamoterole", "value": "Xamoterole rescues the deficit in"}, {"measurement": "% Freshing in Tone-cued Fear Conditioning, Mean ± SEM", "setting": "[4]", "value": "38.43 ± 8.26", "unit": "%"}]}]}
